Read-outs that look alike come from different tables or passages of the source.

For experiment [1], the system named is S. aureus EN008. The experiment in a line: MIC, Gram-positive control. Format: cell-based, Staphylococcus aureus. To be noted: Staphylococcus aureus, EN008, combination didanosine+trimethoprim+uridine, Table 10; read-out: MIC.
Experiment [2] has as its system A. pittii or A. nosocomialis EN0180. The experiment can be described thus: MIC. Type of experiment: cell-based, Acinetobacter pittii or nosocomialis. To be noted: combination didanosine+trimethoprim+uridine, Table 10; read-out: MIC.
For experiment [3], the system named is E. coli EN001. The experiment in a line: MIC, WT (EN001 = EN0001, ATCC 25922). Format: cell-based, Escherichia coli. To be noted: combination didanosine+trimethoprim+uridine, Table 20.
Experiment [4] relates to P. aeruginosa EN014. The experiment can be described thus: MIC, WT. Format: cell-based, Pseudomonas aeruginosa. To be noted: Pseudomonas aeruginosa, EN014, combination didanosine+trimethoprim+uridine, Table 10; read-out: MIC.
The subject of experiment [5] is E. aerogenes EN0461. The experiment can be described thus: MIC. Format: cell-based, Enterobacter aerogenes. To be noted: Klebsiella aerogenes, EN0461, combination didanosine+trimethoprim+uridine, Table 10; read-out: MIC.
The test system of experiment [6] is P. aeruginosa EN0459. The experiment can be described thus: MIC. Format: cell-based, Pseudomonas aeruginosa. As to conditions: Pseudomonas aeruginosa, EN0459, combination didanosine+trimethoprim+uridine, Table 10; read-out: MIC.
Experiment [7] relates to A. baumannii EN007. The experiment can be described thus: MIC, WT (EN007 = EN0007). Type of experiment: cell-based, Acinetobacter baumannii.
The subject of experiment [8] is S. typhimurium EN0466. The experiment in a line: MIC. As to conditions: Salmonella enterica, combination didanosine+trimethoprim+uridine, Table 10. Format: cell-based.
The test system of experiment [9] is P. mirabilis ST19 EN0445. The experiment in a line: MIC. Format: cell-based, Proteus mirabilis. As to conditions: Proteus mirabilis, ST19EN0445, combination didanosine+trimethoprim+uridine, Table 10; read-out: MIC.
Experiment [10] relates to E. coli EN012. The experiment can be described thus: MIC, WT. Type of experiment: cell-based, Escherichia coli. To be noted: Escherichia coli, EN012, combination didanosine+trimethoprim+uridine, Table 10; read-out: MIC.
For experiment [11], the system named is P. aeruginosa EN0422. The experiment in a line: MIC. Format: cell-based, Pseudomonas aeruginosa. As to conditions: Pseudomonas aeruginosa, EN0422, combination didanosine+trimethoprim+uridine, Table 10; read-out: MIC.
Experiment [12] deals with P. aeruginosa EN004. The experiment in a line: MIC, WT (EN004 = EN0004). Format: cell-based, Pseudomonas aeruginosa.
Experiment [13] relates to P. aeruginosa EN0460. The experiment in a line: MIC. As to conditions: Pseudomonas aeruginosa, EN0460, combination didanosine+trimethoprim+uridine, Table 10; read-out: MIC. Type of experiment: cell-based, Pseudomonas aeruginosa.
For experiment [14], the system named is K. pneumoniae EN0463. The experiment can be described thus: MIC. Type of experiment: cell-based, Klebsiella pneumoniae. To be noted: Klebsiella pneumoniae, EN0463, combination didanosine+trimethoprim+uridine, Table 10; read-out: MIC.
In experiment [15] the test system is E. coli EN0235. The experiment in a line: microbe, parasite or virus in culture. Type of experiment: cell-based. To be noted: Escherichia coli, EN0235, combination didanosine+trimethoprim+uridine, Table 20.
Experiment [16] concerns K. oxytoca EN0392. The experiment in a line: MIC. Format: cell-based. To be noted: Klebsiella oxytoca, EN0392, combination didanosine+trimethoprim+uridine, Table 10.
Experiment [17] relates to K. pneumoniae EN006. The experiment in a line: MIC, WT (EN006 = EN0006, ATCC 13883). Format: cell-based, Klebsiella pneumoniae.
The test system of experiment [18] is S. epidermidis EN0456. The experiment in a line: MIC. Format: cell-based, Staphylococcus epidermidis. To be noted: Staphylococcus epidermidis, EN0456, combination didanosine+trimethoprim+uridine, Table 10; read-out: MIC.
The subject of experiment [19] is E. coli EN0136. The experiment in a line: MIC, ESBL (CTX-M-2). Format: cell-based. As to conditions: Escherichia coli, EN0136, combination didanosine+trimethoprim+uridine, Table 20; read-out: MIC.
The test system of experiment [20] is Citrobacter sp. EN0465. The experiment can be described thus: MIC. Type of experiment: cell-based. As to conditions: Citrobacter, SP.EN0465, combination didanosine+trimethoprim+uridine, Table 10; read-out: MIC.
The test system of experiment [21] is A. baumannii EN016. The experiment can be described thus: MIC, WT. As to conditions: Acinetobacter baumannii, EN016, combination didanosine+trimethoprim+uridine, Table 10; read-out: MIC. Format: cell-based, Acinetobacter baumannii.
For experiment [22], the system named is K. pneumoniae EN0262. As to conditions: commercial antibiotics; data provided by IMBIM, BMC, Uppsala University; cited from earlier work.
In experiment [23] the test system is S. flexneri APV00907. The experiment can be described thus: MIC and antibiogram. Type of experiment: cell-based. An excerpt: (§1) Inhibition of Heliobacter is important in view of increasing resistance and its association to gastric cancer.
Experiment [24] deals with S. sonnei APV00908. The experiment can be described thus: MIC and antibiogram. Type of experiment: cell-based.
Experiment [25] has as its system S. flexneri APV00906. The experiment can be described thus: microbe, parasite or virus in culture. Type of experiment: cell-based.
Excerpt: as §1

The test system of experiment [26] is S. aureus V55. The experiment in a line: MIC. Format: cell-based. As to conditions: Staphylococcus aureus, Mupirocin resistant isolate, read-out: MIC (resistance pattern).
Experiment [27] has as its system S. aureus V321. The experiment in a line: MIC. Type of experiment: cell-based. As to conditions: Staphylococcus aureus, Mupirocin resistant isolate, read-out: MIC (resistance pattern).
The test system of experiment [28] is S. aureus V86. The experiment can be described thus: MIC. Format: cell-based. As to conditions: Staphylococcus aureus, V86; Mupirocin resistant isolate; read-out: MIC (resistance pattern).
Experiment [29] deals with S. aureus V308. The experiment can be described thus: MIC. Format: cell-based. As to conditions: Staphylococcus aureus, V308; Mupirocin resistant isolate; read-out: MIC (resistance pattern).
Where [30] appears, read: combination didanosine+trimethoprim+uridine, Table 20.

In the case of `O=c1[nH]cnc2c1ncn2[C@H]1CC[C@@H](CO)O1` [Didanosine, didanosine], the MIC in experiment [1] was 0.5 µg/mL; in [2], over 4 µg/mL; in experiment [3] it was 0.25 µg/mL; in experiment [4], over 4 µg/mL; in [5], 0.5 µg/mL; in [6] it was over 4 µg/mL. Further, the MIC in experiment [7] (Acinetobacter baumannii, EN007, combination didanosine+trimethoprim+uridine, Table 10, read-out: MIC) was over 4 µg/mL; in [7] (setting [30]) it was over 4 µg/mL; in experiment [8], 0.25 µg/mL; in experiment [9], 1 µg/mL; in [10] it was 0.064 µg/mL; in experiment [11], over 4 µg/mL. For the same molecule, the MIC in experiment [12] (Pseudomonas aeruginosa, EN004, combination didanosine+trimethoprim+uridine, Table 10, read-out: MIC) is over 4 µg/mL; in experiment [12] (setting [30]), over 4 µg/mL; in experiment [13], over 4 µg/mL; in experiment [14], 0.25 µg/mL; in experiment [15], 0.125 µg/mL; in experiment [16] it was 0.25 µg/mL. In addition, the MIC in [17] (Klebsiella pneumoniae, EN006, combination didanosine+trimethoprim+uridine, Table 10, read-out: MIC) is 0.5 µg/mL; in experiment [17] (setting [30]) it was 0.5 µg/mL; in experiment [18] it was 0.064 µg/mL; in experiment [19] it was over 4 µg/mL; in [20], over 4 µg/mL; in [21] it was over 4 µg/mL.
Regarding piperacillin-tazobactam [TZP], in experiment [22], the MIC was 64 µg/mL. For the same molecule, the “Antibiogram MIC” value in experiment [23], in [24] and in experiment [25] was at most 4 µg/mL throughout.
As for gentamicin, the MIC in [22] is 1 µg/mL. In addition, the entries for the “Antibiogram MIC” value in experiment [23], in experiment [24] and in experiment [25] were at most 1 µg/mL, at most 1 µg/mL and 4 µg/mL, respectively. In addition, the “Antibiogram category (resistance pattern)” value in experiment [23] (letter before the MIC), in experiment [24] (letter before the MIC) and in experiment [25] (letter before the MIC) was “R*” throughout.
In the case of `C/C(=C\C(=O)OCCCCCCCCC(=O)O)C[C@@H]1OC[C@H](C[C@@H]2O[C@H]2[C@@H](C)[C@H](C)O)[C@@H](O)[C@H]1O` [Mupirocin], the MIC in experiment [26], in [27], in [28] and in experiment [29] was over 256 µg/mL in each case.

Values taken from patent publication US10828317B2, “Method of treating bacterial infections” (priority 2016, dated 2020).
